Key:
human H3 receptor = biological target: T1, human H3 receptor (Homo sapiens, UniProt Q9Y5N1); experiment: Human H3 radioligand binding ([3H]-N-alpha-methylhistamine, CHO cell membranes); settings: Human H3 binding constant, class symbols; read-out: hH3 Ki
T1 construct: expressed in transfected cells
Method: (§1) Methods: CHO cells stably expressing the human H3 receptor (GenBank: NM_007232) were harvested and cell pellets were frozen (−80° C.). Cell pellets were resuspended in 5 mM Tris-HCl, pH 7.5 with 5 nM EDTA and a cocktail of protease inhibitors (Complete Protease Inhibitor Tablets, Roche Diagnostics). Cells were disrupted using a polytron cell homogenizer and the suspension was centrifuged at 1000×g for 10 minutes at 4° C. The pellet was discarded and the supernatant centrifuged at 40,000×g for 30 min at 4° C. This membrane pellet was washed in membrane buffer containing 50 mM Tris-HCl, pH 7.5 with 0.6 mM EDTA, 5 mM MgCl2 and protease inhibitors, recentrifuged as above and the final pellet resuspended in membrane buffer plus 250 mM sucrose and frozen at −80° C.
(§2) Radioligand Binding. Membranes were resuspended in 50 mM Tris HCl (pH 7.4), 5 mM MgCl2, 0.1% BSA. The membrane suspensions (10 μg protein per well) were incubated in a 96 well microtiter plate with [^3H]-N-alpha-methylhistamine (approximately 1 nM final concentration), test compounds at various concentrations (0.01 nM-30 μM) and scintillation proximity beads (Perkin Elmer, FlashBlueGPCR Scintillating Beads) in a final volume of 80 μl for 4 hours at room temperature, protected from light. Non-specific binding was determined in the presence of 10 μM clobenpropit. Radioligand bound to receptor, and therefore in proximity to the scintillation beads, was measured using a MicroBeta scintillation counter.

[1] = biological target: T2, rat histamine H3 receptor (Rattus norvegicus, UniProt Q9QYN8); experiment: Rat H3 radioligand binding ([3H]-N-alpha-methylhistamine, CHO-A3 cell membranes); settings: Rat H3 binding constant, class symbols; read-out: rH3 Ki
T2 construct: encoding the entire 445-amino-acid rat histamine H3 receptor; expressed in transfected cells
Text: as §1, with “Cell line development and membrane preparation. The rat” for “Methods: CHO cells stably expressing the human”, “cDNA was PCR amplified from reverse-transcribed RNA pooled from rat thalamus, hypothalamus, striatum and prefrontal cortex with a sequence corresponding to by #338-1672 of Genbank file #NM_053506, encoding the entire 445-amino-acid rat histamine H3 receptor. This was engineered into the pIRES-neo3 mammalian expression vector, which was stably transfected into the CHO-A3 cell line (Euroscreen, Belgium), followed by clonal selection by limiting dilution. Cells” for “(GenBank: NM_007232)”
as §2

T2 sequence (Q9QYN8 whole entry): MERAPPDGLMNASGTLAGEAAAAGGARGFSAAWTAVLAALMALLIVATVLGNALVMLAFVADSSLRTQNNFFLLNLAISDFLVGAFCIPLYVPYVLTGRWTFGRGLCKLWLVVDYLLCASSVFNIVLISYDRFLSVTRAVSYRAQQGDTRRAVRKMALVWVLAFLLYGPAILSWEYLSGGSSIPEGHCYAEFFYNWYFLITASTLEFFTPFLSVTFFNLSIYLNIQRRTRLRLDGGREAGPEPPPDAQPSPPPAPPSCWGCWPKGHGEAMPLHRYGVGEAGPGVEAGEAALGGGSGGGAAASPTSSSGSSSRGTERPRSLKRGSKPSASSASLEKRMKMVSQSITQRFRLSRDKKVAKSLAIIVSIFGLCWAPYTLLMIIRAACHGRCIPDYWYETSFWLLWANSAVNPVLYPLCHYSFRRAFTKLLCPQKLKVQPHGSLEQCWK
T1 sequence (Q9Y5N1 whole entry): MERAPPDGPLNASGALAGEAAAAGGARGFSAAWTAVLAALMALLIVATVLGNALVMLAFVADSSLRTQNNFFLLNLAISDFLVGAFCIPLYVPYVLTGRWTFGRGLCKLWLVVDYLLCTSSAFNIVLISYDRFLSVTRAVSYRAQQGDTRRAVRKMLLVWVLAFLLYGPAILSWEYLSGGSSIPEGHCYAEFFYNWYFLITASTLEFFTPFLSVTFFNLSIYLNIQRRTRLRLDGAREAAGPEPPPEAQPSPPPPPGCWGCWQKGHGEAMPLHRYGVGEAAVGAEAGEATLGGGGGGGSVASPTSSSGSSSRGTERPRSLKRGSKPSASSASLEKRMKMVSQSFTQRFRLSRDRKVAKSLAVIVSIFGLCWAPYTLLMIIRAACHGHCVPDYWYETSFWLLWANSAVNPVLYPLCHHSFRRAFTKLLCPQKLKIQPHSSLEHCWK

Row | SMILES | Ki (human H3 receptor) [nM] | Ki [1] [nM] | melting point [°C]
1 | Cn1nc(-c2ccc3c(c2)CCNCC3)ccc1=O [Example 20, 2-Methyl-6-(2,3,4,5-tetrahydro-1H-benzo[d]azepin-7-yl)-2H-pyridazin-3-one] | > 1000 | > 1000 | 183 to 185
2 | Cn1nc(-c2ccc3c(c2)CCN(C2CCC2)CC3)ccc1=O [Example 21, 6-(3-Cyclobutyl-2,3,4,5-tetrahydro-1H-benzo[d]azepin-7-yl)-2-methyl-2H-pyridazin-3-one] | < 100 | < 100 | 287 to 288
3 | CC(C)Cn1nc(-c2ccc3c(c2)CCN(C2CCC2)CC3)ccc1=O [Example 16, 6-(3-Cyclobutyl-2,3,4,5-tetrahydro-1H-benzo[d]azepin-7-yl)-2-isobutyl-2H-pyridazin-3-one] | < 100 | 100 to 1000 | 245 to 246
4 | CC(C)N1N=C(c2ccc3c(c2)CCN(C2CCC2)CC3)CCC1=O [Example 4, 6-(3-Cyclobutyl-2,3,4,5-tetrahydro-1H-benzo[d]azepin-7-yl)-2-isopropyl-4,5-dihydro-2H-pyridazin-3-one] | < 100 | 100 to 1000 | 140 to 141
5 | O=C1CCC(c2ccc3c(c2)CCN(C2CCC2)CC3)=NN1CC(F)(F)F [Example 10, 6-(3-Cyclobutyl-2,3,4,5-tetrahydro-1H-benzo[d]azepin-7-yl)-2-(2,2,2-trifluoro-ethyl)-4,5-dihydro-2H-pyridazin-3-one] | < 100 | < 100 | 139 to 140
6 | CS(=O)(=O)c1ccc(-n2nc(-c3ccc4c(c3)CCN(C3CCC3)CC4)ccc2=O)cc1 [Example 25, 6-(3-Cyclobutyl-2,3,4,5-tetrahydro-1H-benzo[d]azepin-7-yl)-2-(4-methanesulfonyl-phenyl)-2H-pyridazin-3-one] | < 100 | 100 to 1000 | 225
7 | CC(C)N1CCc2ccc(-c3ccc(=O)n(C(C)C)n3)cc2CC1 [Example 8, 2-Isopropyl-6-(3-isopropyl-2,3,4,5-tetrahydro-1H-benzo[d]azepin-7-yl)-2H-pyridazin-3-one] | 100 to 1000 | 100 to 1000 | 244 to 245
8 | CC(C)CN1N=C(c2ccc3c(c2)CCN(C2CCC2)CC3)CCC1=O [Example 15, 6-(3-Cyclobutyl-2,3,4,5-tetrahydro-1H-benzo[d]azepin-7-yl)-2-isobutyl-4,5-dihydro-2H-pyridazin-3-one] | < 100 | 100 to 1000 | 134 to 135

Other lines, results leading:

Row | Ki (human H3 receptor) [nM] | Ki [1] [nM] | melting point [°C] | SMILES
9 | 100 to 1000 | 100 to 1000 | 177 to 179 | Cn1nc(-c2ccc(C(=O)N3CCN(C4CCCC4)CC3)cc2)ccc1=O [Example 46, 6-[4-(4-Cyclopentyl-piperazine-1-carbonyl)-phenyl]-2-methyl-2H-pyridazin-3-one]
10 | 100 to 1000 | 100 to 1000 | 131 to 132 | CC(C)N1CCN(C(=O)c2ccc(-c3ccc(=O)n(C)n3)cc2)CC1 [Example 47, 6-[4-(4-Isopropyl-piperazine-1-carbonyl)-phenyl]-2-methyl-2H-pyridazin-3-one]
11 | < 100 | < 100 | 159 to 161 | C[C@@H]1CCCN1CCc1ccc(-c2ccc(=O)[nH]n2)cc1 [Example 51, 6-{4-[2-((R)-2-Methyl-pyrrolidin-1-yl)-ethyl]-phenyl}-2H-pyridazin-3-one]
12 | < 100 | < 100 | 62 to 66 | O=C(c1ccc(-c2ccc(=O)[nH]n2)cc1)N1CCC[C@H]1CN1CCCC1 [Example 50, 6-[4-((S)-2-Pyrrolidin-1-ylmethyl-pyrrolidine-1-carbonyl)-phenyl]-2H-pyridazin-3-one]
13 | < 100 | < 100 | 215 to 220 | O=c1ccc(-c2ccc(Oc3ccc4c(c3)CCN(C3CCC3)CC4)nc2)n[nH]1 [Example 27, 6-[6-(3-Cyclobutyl-2,3,4,5-tetrahydro-1H-benzo[d]azepin-7-yloxy)-pyridin-3-yl]-2H-pyridazin-3-one]
